# Measurements taken from patent US8535897B2, “Assays for non-apoptotic cell death and uses thereof” (The Trustees of Columbia University in the City of New York, priority 2006, dated 2013).
# Counter-ions that a name gives are not always drawn.
# Tests used:
# [1] = tested on: BJ-TERT/LT/ST/RAS^V12 cells; test: Cell death, viable cells counted using a hemacytometer; format: cell-based, human; conditions: 13 μM erastin Al, 23 μM antimycin, 126 μM 2-ME or the combinations
# [2] = tested on: BJ-TERT/LT/ST/RAS^V12 cells; test: Suppression of erastin lethality by MEK inhibitors (Trypan Blue); format: cell-based, human; conditions: U0126 20 μM, MEK inhibitor I 10 μM, MEK 1/2 inhibitor 50 μM, 48 h
# Experimental: BJ-TERT/LT/ST/RASV12 engineered tumor cells were treated with the indicated concentrations of erastin and each MEK1/2 inhibitor for 24 hours and viability was determined by Trypan Blue exclusion.
# Cells grown in 175 cm^2 flasks were reseeded in 6-well format (1.4×10^5 cells/well) and treated with erastin dilutions (5-fold, from 36 uM to 60 nM, with no-drug control, n=2) in the presence of one of the MEK inhibitors U0126 (20 uM), MEK inhibitor I (10 uM), MEK 1/2 inhibitor (50 uM), PD98059 (50 uM), MEK inhibitor II (30 uM), or in the absence of inhibitor. After 48 hours, cells were trypsinized and counted using a Vi-CELL™ Series Cell Viability Analyzer. […] Non-linear regression was used to fit curves to the data points using GraphPad Prism™ software. The bottom of each curve was set to zero.
# [3] = tested on: BJ-TERT/LT/ST/RAS^V12 cells; test: Suppression of erastin lethality by iron chelators (Alamar Blue); format: cell-based, human; conditions: 100 μM DFOM, 100 μM 1a, 100 μM 2, 10 μM or 1 μM 311, 24 h
# Experimental: BJ-TERT/LT/ST/RAS^V12 cells were treated with erastin and four different iron chelators, desferrioxamine mesylate (DFOM), the compounds 1a and 2 whose structures are shown in FIG. 30, and the compound “311” (311-10 or 311-1) (Green, D. A, et al., Inhibition of Malignant Cell Growth by 311, a novel iron chelator of the pyridoxal isonicotinoyl hydrazone class: Effect on the R2 subunit of ribonucleotide reductase. Clinical Cancer Research, (7): 3574-3579 (2001). Cell killing was measured by Alamar Blue assay.
# (a) BJ-TERT/LT/ST/RAS^V12 cells were treated with 9 μM erastin A1 for the indicated length of time, and the number of viable cells determined. (b) 1,000 BJ-TERT/LT/ST/RAS^V12 cells/well in 384-well plates were treated with erastin for 2 d, then alamar blue was added to a final concentration of 10% and the plates were incubated for 16 h. Red fluorescence resulting from reduction of alamar blue was detected on a Victor3 platereader. […] (e) The number of viable cells was quantified under each condition using a hemacytometer. […] BJ-TERT/LT/ST/RAS^V12 (shown in histogram plots, and in line graph as dark diamonds) or BJ-TERT cells (shown in line graph only, light circles) were treated with 4.6-μM erastin A1 and the level of intracellular oxidative species determined. […] ATP levels were measured, viable cells determined by Trypan Blue exclusion and ATP per viable cell determined. […]
# BJ-TERT/LT/ST/RASV12 = test: Alamar blue viability assay, engineered tumor cells; format: cell-based, human; conditions: for selective lethality / activity in cells: BJ-TERT/LT/ST/RAS^V12 cells vs BJ-TERT cells
# Experimental: Erastin was tested in a dilution series in five engineered cell lines derived from primary BJ fibroblasts. Cells were incubated with erastin for two days at 37° C. with 5% CO2, Alamar blue was added (10% final volume) and fluorescence measured (530 nm ex, 590 nm em). Cell lines harboring oncogenic RAS (triangles, circles and x's) were sensitive to erastin, but isogenic lines lacking oncogenic RAS (squares and diamonds) were resistant. Two different clones of engineered tumor cells (circles and triangles) responded similarly.
# (a) BJ-TERT/LT/ST/RAS^V12 cells were treated with 9 μM erastin A1 for the indicated length of time, and the number of viable cells determined. (b) 1,000 BJ-TERT/LT/ST/RAS^V12 cells/well in 384-well plates were treated with erastin for 2 d, then alamar blue was added to a final concentration of 10% and the plates were incubated for 16 h. Red fluorescence resulting from reduction of alamar blue was detected on a Victor3 platereader. The percent growth inhibition is shown; error bars represent one SD. […] (c) TEM images (20,000× magnification) of BJ-TERT/LT/ST/RAS^V12 mitochondria after cells were treated with nothing, erastin (37 μM for 10 h) or staurosporine (STS, 1 μM for 5 h), and phase-contrast photograph of BJ-TERT/LT/ST/RAS^V12 cells 24 h after 9 μM erastin A1 treatment is also shown to indicate that even after cell death, nuclei are intact. (d) Anti-oxidants suppress erastin-induced death. BJ-TERT/LT/ST/RAS^V12 cells were treated as indicated and photographed. (e) The number of viable cells was quantified under each condition using a hemacytometer. (f) Iron chelators suppress erastin-induced cell death. Cells were seeded in 384-well plates (6,000 cells/well) and treated with 2-fold dilution series of erastin in the presence of 100 μM desferrioxamine mesylate (DFOM), 100 μM of iron chelator 1a, 100 μM of iron chelator 2, 10 μM or 1 μM of iron chelator 311. After 24 h, alamar blue was added and cell viability assayed. (g, h) Erastin-induced formation of oxidative species. BJ-TERT/LT/ST/RAS^V12 (shown in histogram plots, and in line graph as dark diamonds) or BJ-TERT cells (shown in line graph only, light circles) were treated with 4.6-μM erastin A1 and the level of intracellular oxidative species determined. (i, j) STS, but not erastin, induces PARP1 cleavage (red bands at top) in BJ-TERT/LT/ST/RAS^V12 cells and in A673, HT1080 and HeLa cells. NS: non-specific band. […] Cells were treated with STS or erastin, separated into mitochondrial and cytosolic fractions, and probed for cytochrome c (lower red band) and total VDAC (middle green band, pan-VDAC antibody). (1) Caspase-3 is not cleaved in response to erastin. Cells were treated as indicated and probed with an anti-caspase-3 antibody that recognizes both the full length and the cleaved, active form (lower band). […] ATP levels were measured, viable cells determined by Trypan Blue exclusion and ATP per viable cell determined. Abbreviations: DMSO, dimethylsulfoxide; BHT, butylated hydroxytoluene; TOC, alpha-tocopherol; ERA, erastin A1; CAR, beta-carotene; STS, staurosprine.
# (a) Calu-1 lung carcinoma cells harboring oncogenic KRAS were infected with lentivirus containing shRNAs targeting KRAS or GFP. Sequences of shRNAs are indicated by starting nucleotide (nt) in the KRAS mRNA coding sequence. Cells were treated with erastin and viability measured by Trypan Blue exclusion. (b) Knockdown of KRAS was confirmed by western blot. (c,d) A673 cells harboring oncogenic BRAF were infected with lentiviral shRNAs targeting BRAF exon 5 (c) or the 5′ UTR (d), luciferase (LUC)(c) or GFP (d). Cells were treated with erastin and viability measured using Alamar Blue (c) and Trypan Blue (d). (e) Knockdown of BRAF was confirmed by western blot. […] BJ-TERT/LT/ST/RAS^V12 cells were treated with erastin alone or in with a MEK inhibitor U0126 (20 μM), MEK inhibitor I (10 μM) or MEK 1/2 inhibitor (50 μM). After 48 h, viability was determined using Trypan Blue. […]
# VDAC1, VDAC2 and VDAC3 = test: VDAC chemi-proteomic identification (pull-down on immobilized erastin analogs); format: binding, human; conditions: BJ-TERT/LT/ST/RAS^V12 cell lysates
# Source text: Erastin A6, Erastin A3, and erastin B2 were immobilized on solid-phase resins, and proteins that interact with A3 or A6, but not B2 were identified. […] In certain embodiments, wherein BJ-TERT cell lysates were used, a small amount of VDAC1 on the A3 and A6 resins was identified, but none of the VDACs were bound on the B2 resin. Thus, it appears that erastin A3 and A6 more efficiently isolate VDAC2 and VDAC3 compared to erastin B2.
# Cultures of BJ-TERT and BJ-TERT/LT/ST/RAS^V12 cells (ten 150 mm plates) were washed with PBS, lysed in 25 mM hydroxyethylpiperazine-N′-2-ethanesulfonic acid (HEPES) pH 7.5, 150 mM NaCl, 1% NP-40, 10 mM MgCl2, 1 mM ethylene-diamine tetra acetate (EDTA), 10% glycerol, 1 mM dithiothreitol (DTT) and protease inhibitor cocktail. Protein concentration was determined using a Bradford colorimetric assay.
# Erastin A3 and B2 were dissolved in DMSO at 10 mg/ml. 100 μL of AffiGel-10 was washed and resuspended in 400 μl DMSO. 10 μL of compound and 3 μL of 1:100 dilution of triethylamine in DMSO were added. […] Samples were analyzed using both a 4700 Proteomics Analyzer MALDI-TOF/TOF (TOF/TOF; Applied Biosystems) and a Q Trap (AB/MDS Sciez) and the peptide level data were combined. […]
# BJELR cells = test: Sensitivity after upregulation of VDACs by nucleofection; format: cell-based, human
# Source text: Quantitative western blot showing the ratio of VDACs (top band, green) to eif4E (bottom band, red) (e). […] Green, untransfected BJELR cells; blue, mock nucleofected BJELR cells; red, VDAC2/3-nucleofected BJELR cells (f).
# In certain aspects, the invention provides that erastin acts by a gain-of-function mechanism and that cells with more VDAC proteins are more sensitive to erastin. A gain-of-function mechanism operates in cells which have increased levels of topoisomerase I and are thus more sensitive to camptothecin^149. […] In other embodiments, cell lines can be stably transfected with vectors expressing VDAC1, 2, and/or 3. Thus, increased VDAC expression leads to erastin sensitivity which is consistent with a gain of function mechanism. Furthermore, a knockdown of VDACs causes erastin resistance.
compound,measurement,setting,value
"COc1cc2c(cc1O)CC[C@@H]1[C@@H]2CC[C@]2(C)[C@@H](O)CC[C@@H]12 [2-ME, 2-methoxyestradiol]",Cell death (%),[1],66%
N#CC(=C(N)Sc1ccc(N)cc1)c1ccccc1C(F)(F)F [MEK 1/2 inhibitor],effect of MEK inhibitor on erastin lethality,[2],prevent erastin lethality
N#C/C(=C(/N)Sc1ccccc1N)c1cccc(C(O)c2ccncc2)c1 (stereo not drawn) [MEK inhibitor I],effect of MEK inhibitor on erastin lethality,[2],prevent erastin lethality
N#CC(=C(/N)Sc1ccccc1N)/C(C#N)=C(\N)Sc1ccccc1N [U0126],effect of MEK inhibitor on erastin lethality,[2],prevent erastin lethality
O=C(N/N=C/c1c(O)ccc2ccccc12)c1ccncc1 [compound 311],effect of iron chelator on erastin lethality,[3],suppress erastin lethality
CC(=O)N(O)CCCCCNC(=O)CCC(=O)N(O)CCCCCNC(=O)CCC(=O)N(O)CCCCCN [desferrioxamine mesylate],effect of iron chelator on erastin lethality,[3],suppress erastin lethality
CCOc1ccccc1-n1c(C(C)N2CCN(C(=O)COc3ccc(CN)cc3)CC2)nc2ccccc2c1=O (stereo not drawn) [erastin A3],selective lethality / activity in cells,BJ-TERT/LT/ST/RASV12,retained the ability to kill BJ-TERT/LT/ST/RAS^V12 cells but not BJ-TERT cells
same,VDAC isoforms identified on the immobilized analog resin,"VDAC1, VDAC2 and VDAC3","all three isoforms of the human mitochondrial voltage-dependent anion channels (VDAC1, VDAC2 and VDAC3) were identified"
CCOc1ccccc1-n1c(C(C)N2CCN(C(=O)COc3ccc(CN)cc3)CC2)nc2ccccc2c1=O (stereo not drawn) [erastin A6],selective lethality / activity in cells,BJ-TERT/LT/ST/RASV12; listed as ERA-A6,selectively lethal to RASV12-expressing cells
same,VDAC isoforms identified on the immobilized analog resin,"VDAC1, VDAC2 and VDAC3","all three isoforms of the human mitochondrial voltage-dependent anion channels (VDAC1, VDAC2 and VDAC3) were identified"
CCOc1ccccc1-n1c(C(C)N2CCN(C(C)=O)CC2)nc2ccccc2c1=O (stereo not drawn) [erastin A8],selective lethality / activity in cells,BJ-TERT/LT/ST/RASV12,inactive
CCOc1ccccc1-n1c(C(C)N2CCN(C(=O)COc3ccc(Cl)cc3)CC2)nc2cc(NC(C)=O)ccc2c1=O (stereo not drawn) [erastin A9],IC50,BJ-TERT/LT/ST/RASV12; BJELR (BJ-TERT/LT/ST/RAS^V12) cells,1.9 µM
CC(C)NC(=O)N(CCN1CCN(C(=O)COc2ccc(Cl)cc2)CC1)Cc1ccc(F)cc1 [erastin B1],selective lethality / activity in cells,BJ-TERT/LT/ST/RASV12,inactive
CC(C)NC(=O)N(CCN1CCN(C(=O)COc2ccc(Cl)cc2)CC1)Cc1ccc(CN)cc1 [erastin B2],selective lethality / activity in cells,BJ-TERT/LT/ST/RASV12,lacks activity
same,lethality (no lethality up to),BJ-TERT/LT/ST/RASV12; BJELR cells,> 50 µM
same,VDAC isoforms identified on the immobilized analog resin,"VDAC1, VDAC2 and VDAC3",only VDAC1
COc1cc([C@@H]2c3cc4c(cc3[C@H](O)[C@H]3COC(=O)[C@H]23)OCO4)cc(OC)c1OC [podophyllotoxin],change in sensitivity/potency after upregulation of VDAC proteins by nucleofection,BJELR cells,did not change the potency
antimycin,Cell death (%),[1],51%
